In brackets after ≈: the same amount, converted by molar mass. Where a name gives a salt, the structure may show the parent alone. Marks after values point to notes of the source that are not given here.
Assays:
[1] = Solubility of exemplary therapeutic agents in organic solvents
Source text: In this context, the solubility is indicated as the weight of the dissolved substance (the solute) per volume of the solvent (i.e. the volume of solvent added to the solute).

[2] = 20° C.; cited from earlier work

For `CN1C[C@H]2c3ccccc3Oc3ccc(Cl)cc3[C@@H]2C1` (relative stereo) [Asenapine maleate, (3aRS,12bRS)-rel-5-Chloro-2,3,3a,12b-tetrahydro-2-methyl-1H-dibenz[2,3:6,7]oxepino[4,5-c]pyrrole], the Solubility ([1]; solvent Acetone) was “soluble”, the Solubility ([1]; solvent Benzylalcohol) was “soluble” and the Solubility ([1]; solvent DMSO) was “soluble”. The Solubility ([1]; solvent Dimethylcarbonate) was “soluble”, the Solubility ([1]; solvent EMK) was “soluble” and the Solubility ([1]; solvent Ethanol) was “soluble”. The Solubility ([1]; solvent Ethyl acetate) was “soluble”, the Solubility ([1]; solvent Ethyl formate) was “soluble” and the Solubility ([1]; solvent Glycofurol) was “soluble”. For the same compound, the Solubility ([1]; solvent Iso propanol) was “non-soluble”, the Solubility ([1]; solvent Isopropyl acetate) was “non-soluble” and the Solubility ([1]; solvent Isopropyl formate) was “soluble”. The Solubility ([1]; solvent Methyl acetate) was “soluble”, the Solubility ([1]; solvent NMP) was “soluble” and the Solubility ([1]; solvent THF) was “soluble”.

In the case of `CC(C)=O` [Aceton], the Solubility in water [2] is given as “soluble”.

With `O=C1CCc2ccc(OCCCCN3CCN(c4cccc(Cl)c4Cl)CC3)cc2N1` [Aripiprazole] the Solubility ([1]; solvent Acetone) was “soluble”, the Solubility ([1]; solvent Benzyl benzoate) was “soluble” and the Solubility ([1]; solvent Benzylalcohol) was “soluble”. For the same compound, the Solubility ([1]; solvent DMSO) was “soluble”, the Solubility ([1]; solvent EMK) was “soluble” and the Solubility ([1]; solvent Ethanol) was “non-soluble”. The Solubility ([1]; solvent Ethyl acetate) was “soluble”, the Solubility ([1]; solvent Ethyl formate) was “soluble” and the Solubility ([1]; solvent Glycofurol) was “soluble”. The Solubility ([1]; solvent Isopropyl acetate) was “non-soluble”, the Solubility ([1]; solvent Isopropyl formate) was “soluble” and the Solubility ([1]; solvent Methyl acetate) was “soluble”. The Solubility ([1]; solvent NMP) was “soluble”, the Solubility ([1]; solvent THF) was “soluble” and the Solubility ([1]; solvent Triacetin) was “non-soluble”.

In the case of `CCCCOC=O` [Butyl formate], the Solubility in water [2] is listed as “slow decomposition”.

For `ClCCl` [Dichlormethan], the Solubility in water [2] is given as 20 g/L (≈ 235 mM).

In the case of `COC(=O)OC` [Dimethyl Carbonate], the Solubility in water [2] is listed as 139 g/L (≈ 1540 mM).

With `CNCC[C@H](Oc1cccc2ccccc12)c1cccs1` [Duloxetine HCl, (+)-(S)—N-Methyl-3-(naphthalen-1-yloxy)-3-(thiophen-2-yl)propan-1-amine] the Solubility ([1]; solvent Acetone) was “non-soluble”, the Solubility ([1]; solvent Benzyl benzoate) was “non-soluble” and the Solubility ([1]; solvent Benzylalcohol) was “soluble”. For the same compound, the Solubility ([1]; solvent DMSO) was “soluble”, the Solubility ([1]; solvent EMK) was “non-soluble” and the Solubility ([1]; solvent Ethanol) was “soluble”. The Solubility ([1]; solvent Ethyl acetate) was “non-soluble”, the Solubility ([1]; solvent Ethyl formate) was “non-soluble” and the Solubility ([1]; solvent Glycofurol) was “soluble”. For the same compound, the Solubility ([1]; solvent Methyl acetate) was “non-soluble”, the Solubility ([1]; solvent Methyl benzoate) was “non-soluble” and the Solubility ([1]; solvent NMP) was “soluble”. The Solubility ([1]; solvent THF) was “soluble” and the Solubility ([1]; solvent Triacetin) was “non-soluble”.

For `CCOC(C)=O` [Ethyl acetate], the Solubility in water [2] is given as 85.3 g/L.

For `CCOC=O` [Ethyl formate], the Solubility in water [2] is listed as 105*** g/L.

For `CC(C)OC=O` [Isopropyl formate], the Solubility in water [2] is given as “slow decomposition”.

For `COC(C)=O` [Methyl acetate], the Solubility in water [2] is listed as 319 g/L.

For `CC(=O)C(C)C` [Methylisopropylketone], the Solubility in water [2] is given as 6 g/L (≈ 69.7 mM).

With `OCCOCCN1CCN(C2=Nc3ccccc3Sc3ccccc32)CC1` [Quetiapine fumarate, 2-(2-(4-dibenzo[b,f][1,4]thiazepine-11-yl-1-piperazinyl)ethoxy)ethanol] the Solubility ([1]; solvent Acetone) was “non-soluble”, the Solubility ([1]; solvent Benzylalcohol) was “soluble” and the Solubility ([1]; solvent DMSO) was “soluble”. For the same compound, the Solubility ([1]; solvent EMK) was “non-soluble”, the Solubility ([1]; solvent Ethanol) was “non-soluble” and the Solubility ([1]; solvent Ethyl acetate) was “non-soluble”. The Solubility ([1]; solvent Ethyl formate) was “non-soluble”, the Solubility ([1]; solvent Glycofurol) was “soluble” and the Solubility ([1]; solvent Methyl acetate) was “non-soluble”. The Solubility ([1]; solvent NMP) was “soluble”, the Solubility ([1]; solvent THF) was “soluble” and the Solubility ([1]; solvent Triacetin) was “non-soluble”.

For `O=C(c1ccc(OCCN2CCCCC2)cc1)c1c(-c2ccc(O)cc2)sc2cc(O)ccc12` [Raloxifene HCl, [6-hydroxy-2-(4-hydroxyphenyl)-benzothiophen-3-yl]-[4-[2-(1-piperidyl)ethoxy]phenyl]-methanone], the Solubility ([1]; solvent Acetone) was “non-soluble”, the Solubility ([1]; solvent Benzyl formate) was “non-soluble” and the Solubility ([1]; solvent Benzylalcohol) was “non-soluble”. The Solubility ([1]; solvent DMSO) was “soluble”, the Solubility ([1]; solvent Dichloromethane) was “non-soluble” and the Solubility ([1]; solvent EMK) was “non-soluble”. The Solubility ([1]; solvent Ethanol) was “non-soluble”, the Solubility ([1]; solvent Ethyl acetate) was “non-soluble” and the Solubility ([1]; solvent Ethyl formate) was “non-soluble”. For the same compound, the Solubility ([1]; solvent Isopropyl acetate) was “non-soluble”, the Solubility ([1]; solvent Isopropyl formate) was “non-soluble” and the Solubility ([1]; solvent Methyl acetate) was “non-soluble”. For the same compound, the Solubility ([1]; solvent NMP) was “soluble”, the Solubility ([1]; solvent Propyl formate) was “non-soluble” and the Solubility ([1]; solvent THF) was “non-soluble”.

For `CC(C)c1nc(N(C)S(C)(=O)=O)nc(-c2ccc(F)cc2)c1/C=C/[C@@H](O)C[C@@H](O)CC(=O)O` [Rosuvastatin Ca, (3R,5S,6E)-7-[4-(4-fluorophenyl)-2-(N-methylmethanesulfonamido)-6-(propan-2-yl)pyrimidin-5-yl]-3,5-dihydroxyhept-6-enoic acid], the Solubility ([1]; solvent Acetone) was “soluble”, the Solubility ([1]; solvent Benzylalcohol) was “soluble” and the Solubility ([1]; solvent DMSO) was “soluble”. The Solubility ([1]; solvent EMK) was “soluble”, the Solubility ([1]; solvent Ethanol) was “non-soluble” and the Solubility ([1]; solvent Ethyl acetate) was “soluble”. For the same compound, the Solubility ([1]; solvent Ethyl formate) was “soluble”, the Solubility ([1]; solvent Glycofurol) was “soluble” and the Solubility ([1]; solvent Isopropyl acetate) was “non-soluble”. The Solubility ([1]; solvent Isopropyl formate) was “non-soluble”, the Solubility ([1]; solvent Methyl acetate) was “soluble” and the Solubility ([1]; solvent NMP) was “soluble”. The Solubility ([1]; solvent THF) was “soluble” and the Solubility ([1]; solvent Triacetin) was “non-soluble”.

For `CCCOC=O` [n- Propyl formate], the Solubility in water [2] is listed as 28 g/L.

In the case of `CCCOC(C)=O` [n-Propyl acetate], the Solubility in water [2] is listed as 21.2 g/L.

In the case of `CC(=O)OC(C)(C)C` [tert. Butyl acetate], the Solubility in water [2] is listed as “insoluble”.
